Structures can show the parent of a compound that is named as a salt.
How the values were obtained:
[1] = system: 409B2 hiPSC (iCRISPR Cas9, FRMD7 editing); test: cell survival relative to solvent control (fold (ratio to mock)); higher = more surviving cells
Procedure: (§1)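 Subset screen of 55 drugs tested at 5 concentrations around the effective screening dose, in 409B2 iCRISPR Cas9 hiPSCs editing FRMD7 with a ssDNA donor. Drugs were applied for 24 h. Viability was read by resazurin and editing outcomes by amplicon sequencing (HDR, NHEJ <2 bp microhomology, MMEJ ≥2 bp microhomology). Values are relative to solvent mock controls; two biological replicates.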

[2] = system: 409B2 hiPSC (iCRISPR Cas9, FRMD7 editing); test: HDR (precise edit) frequency relative to solvent control (fold (ratio to mock)); higher = more homology-directed repair outcomes
Procedure: as §1

[3] = system: 409B2 hiPSC (iCRISPR Cas9, FRMD7 editing); test: NHEJ-attributed indel frequency relative to solvent control (fold (ratio to mock)); higher = more NHEJ outcomes
Procedure: as §1

[4] = system: 409B2 hiPSC (iCRISPR Cas9, FRMD7 editing); test: MMEJ-attributed deletion frequency relative to solvent control (fold (ratio to mock)); higher = more MMEJ outcomes
Procedure: as §1

C[C@]12CC[C@@H]3c4ccc(O)cc4CC[C@H]3[C@@H]1C[C@@H](O)[C@@H]2O [Estriol] (in DMSO)
Conditions | HDR, [2] | MMEJ-attributed deletion frequency, [4] | NHEJ-attributed indel frequency, [3] | cell survival, [1]
20 nM | 1.18 | 0.961 | 0.994 | 0.994
50 nM | 1.03 | 0.901 | 1.01 | 1.11
100 nM | 1.02 | 0.923 | 1.01 | 0.907
200 nM | 1.04 | 0.917 | 1.01 | 1.02
500 nM | 1.08 | 0.932 | 1.02 | 0.944
2000 nM | 0.971 | 0.923 | 1.02 | 0.929
5000 nM | 1.12 | 0.996 | 0.988 | 1.19
10000 nM | 1.07 | 1 | 0.987 | 1.05
20000 nM | 1.11 | 1.04 | 0.9898 | 0.994
50000 nM | 1.15 | 0.971 | 0.986 | 1.15

CC(O)C(=O)O (stereo not given) [lactate] (in H2O)
Conditions | HDR, [2] | MMEJ-attributed deletion frequency, [4] | NHEJ-attributed indel frequency, [3] | cell survival, [1]
200 nM | 1.02 | 1.01 | 0.984 | 1.15
500 nM | 0.941 | 0.849 | 1.02 | 1.08
1000 nM | 0.946 | 0.952 | 1.04 | 0.963
2000 nM | 1.01 | 1.05 | 0.998 | 1.06
5000 nM | 1.005 | 1 | 1 | 1.15

C1CCN2C[C@@H]3C[C@@H](CN4CCCC[C@@H]34)[C@H]2C1 [Sparteine] (in DMSO)
Conditions | HDR, [2] | MMEJ-attributed deletion frequency, [4] | NHEJ-attributed indel frequency, [3] | cell survival, [1]
20 nM | 1.11 | 0.908 | 0.9845 | 0.978
50 nM | 1.001 | 0.866 | 0.98809 | 1.24
100 nM | 1.05 | 0.957 | 1.01 | 1
200 nM | 1.04 | 1.03 | 0.9919 | 1.05
500 nM | 1.02 | 0.9904 | 0.988 | 1.26

CC1(C)S[C@@H]2[C@H](NC(=O)COc3ccccc3)C(=O)N2[C@H]1C(=O)O [Penicillin V potassium salt] (in DMSO)
Conditions | HDR, [2] | MMEJ-attributed deletion frequency, [4] | NHEJ-attributed indel frequency, [3] | cell survival, [1]
200 nM | 0.992 | 1.02 | 1.006 | 0.876
500 nM | 1.05 | 0.994 | 1.012 | 1.15
1000 nM | 0.992 | 0.963 | 0.9903 | 0.976
2000 nM | 1.01 | 1.1 | 1 | 0.894
5000 nM | 0.964 | 1.05 | 1.01 | 0.923

NS(=O)(=O)c1ccccc1 [Benzenesulfonamide] (in DMSO)
Conditions | HDR, [2] | MMEJ-attributed deletion frequency, [4] | NHEJ-attributed indel frequency, [3] | cell survival, [1]
20 nM | 1.14 | 0.855 | 0.951 | 0.86
50 nM | 1.08 | 0.92339 | 0.974 | 1.22
100 nM | 1.02 | 1.05 | 0.969 | 1.05
200 nM | 1.1 | 0.912 | 0.995 | 1.13
500 nM | 1.06 | 0.962 | 0.989 | 1.17

From the supplement of paper PMC12698765
